In patent US20250147039A1, “Compounds for complexation of rare earth elements and/or s-, p-, d- block metals, their coordination compounds, peptide conjugates, method of their preparation and use thereof” (USTAV ORGANICKE CHEMIE A BIOCHEMIE AV CR V.V.I., priority 2021, published 2025):

Key:
[1] = Formation of 1,5-cz-[M(Lig)] from Lig and M^III ions (metal dependent click-zip) (Charts 4, 5); assay type: physicochemical; details: for conversion to 1,5-cz-[M(Lig)], Sc^III / conversion to 1,5-cz-[M(Lig)], Y^III: MOPS/NaOH buffer pH 7.0, TD728, TD827 in 50% i-PrOH; for conversion to 1,5-cz-[M(Lig)], Y^III: TD714 sum of two diastereoisomers; for conversion to 1,5-cz-[M(Lig)], Bi^III: 4% DMSO in MOPS/NaOH buffer pH 7.0, TD728 in 50% i-PrOH
[2] = Formation of 1,5-cz-[M(Lig)] from Lig and M^II ions (metal dependent click-zip) (Charts 6, 7); assay type: physicochemical; details: MOPS/NaOH buffer pH 7.0, TD728 in 50% i-PrOH
[3] = Formation of 1,5-cz-[Ln(Lig)] from Lig and Ln^III ions (metal dependent click-zip), MOPS/NaOH buffer pH 7.0, analytical HPLC (Charts 1, 2); details: MOPS/NaOH buffer pH 7.0
[4] = Dissociation of chelates in aq. 6.0M HCl at 80° C. (acid decomplexation kinetic inertness) (Chart 17); assay type: physicochemical
[5] = Dissociation of chelates in aq. 1.0M HCl at 80° C. (acid decomplexation kinetic inertness) (Chart 18); assay type: physicochemical
[6] = Dissociation of chelates in aq. 0.1M HCl at 80° C. (acid decomplexation kinetic inertness) (Chart 19); assay type: physicochemical
[7] = Dissociation of chelates in aq. 0.1M HCl at RT (acid decomplexation kinetic inertness) (Chart 20); assay type: physicochemical
[8] = 1 hour at 80° C., TD714 sum of two diastereoisomers

With `CC(C)(C)C#Cc1cccc(CN2CCN(CC(=O)O)CCN(Cc3cccc(CN=[N+]=[N-])n3)CCN(CC(=O)O)CC2)n1` [TD959] the “conversion to 1,5-cz-[M(Lig)], Sc^III” value ([1]; 1 week at 80° C.) was 1%, the “conversion to 1,5-cz-[M(Lig)], Y^III” value ([1]; 1 week at 80° C.) was 82% and the “conversion to 1,5-cz-[M(Lig)], Sc^III” value ([1]; 1 hour at 80° C.) was 0%. For the same compound, the “conversion to 1,5-cz-[M(Lig)], Y^III” value ([1]; 1 hour at 80° C.) was 1%, the “conversion to 1,5-cz-[M(Lig)], Ca^II” value ([2]; 1 week at 80° C.) was 83% and the “conversion to 1,5-cz-[M(Lig)], Cd^II” value ([2]; 1 week at 80° C.) was 96%. The “conversion to 1,5-cz-[M(Lig)], Ca^II” value ([2]; 1 hour at 80° C.) was 1%, the “conversion to 1,5-cz-[M(Lig)], Cd^II” value [2, 8] was 2% and the “conversion to 1,5-cz-[Ln(Lig)], Ce^III” value ([3]; after 1 week at 80° C.) was 11%. The “conversion to 1,5-cz-[Ln(Lig)], Ce^III” value ([3]; after 1 hour at 80° C.) was 0%, the “conversion to 1,5-cz-[Ln(Lig)], Dy^III” value ([3]; after 1 week at 80° C.) was 76% and the “conversion to 1,5-cz-[Ln(Lig)], Dy^III” value ([3]; after 1 hour at 80° C.) was 1%. For the same compound, the “conversion to 1,5-cz-[Ln(Lig)], Er^III” value ([3]; after 1 week at 80° C.) was 93%, the “conversion to 1,5-cz-[Ln(Lig)], Er^III” value ([3]; after 1 hour at 80° C.) was 3% and the “conversion to 1,5-cz-[Ln(Lig)], Eu^III” value ([3]; after 1 week at 80° C.) was 51%. The “conversion to 1,5-cz-[Ln(Lig)], Eu^III” value ([3]; after 1 hour at 80° C.) was 1%, the “conversion to 1,5-cz-[Ln(Lig)], Gd^III” value ([3]; after 1 week at 80° C.) was 54% and the “conversion to 1,5-cz-[Ln(Lig)], Gd^III” value ([3]; after 1 hour at 80° C.) was 1%. For the same compound, the “conversion to 1,5-cz-[Ln(Lig)], Ho^III” value ([3]; after 1 week at 80° C.) was 84%, the “conversion to 1,5-cz-[Ln(Lig)], Ho^III” value ([3]; after 1 hour at 80° C.) was 2% and the “conversion to 1,5-cz-[Ln(Lig)], La^III” value ([3]; after 1 week at 80° C.) was 18%. For the same compound, the “conversion to 1,5-cz-[Ln(Lig)], La^III” value ([3]; after 1 hour at 80° C.) was 0%, the “conversion to 1,5-cz-[Ln(Lig)], Lu^III” value ([3]; after 1 week at 80° C.) was 99% and the “conversion to 1,5-cz-[Ln(Lig)], Lu^III” value ([3]; after 1 hour at 80° C.) was 6%. The “conversion to 1,5-cz-[Ln(Lig)], Nd^III” value ([3]; after 1 week at 80° C.) was 34%, the “conversion to 1,5-cz-[Ln(Lig)], Nd^III” value ([3]; after 1 hour at 80° C.) was 0% and the “conversion to 1,5-cz-[Ln(Lig)], Pr^III” value ([3]; after 1 week at 80° C.) was 27%. For the same compound, the “conversion to 1,5-cz-[Ln(Lig)], Pr^III” value ([3]; after 1 hour at 80° C.) was 0%, the “conversion to 1,5-cz-[Ln(Lig)], Sm^III” value ([3]; after 1 week at 80° C.) was 48% and the “conversion to 1,5-cz-[Ln(Lig)], Sm^III” value ([3]; after 1 hour at 80° C.) was 1%. The “conversion to 1,5-cz-[Ln(Lig)], Tb^III” value ([3]; after 1 week at 80° C.) was 68%, the “conversion to 1,5-cz-[Ln(Lig)], Tb^III” value ([3]; after 1 hour at 80° C.) was 1% and the “conversion to 1,5-cz-[Ln(Lig)], Tm^III” value ([3]; after 1 week at 80° C.) was 97%. The “conversion to 1,5-cz-[Ln(Lig)], Tm^III” value ([3]; after 1 hour at 80° C.) was 4%, the “conversion to 1,5-cz-[Ln(Lig)], Yb^III” value ([3]; after 1 week at 80° C.) was 98% and the “conversion to 1,5-cz-[Ln(Lig)], Yb^III” value ([3]; after 1 hour at 80° C.) was 5%.

For `C#Cc1cccc(CN2CCN(CC(=O)O)CCN(Cc3cc(Cl)cc(CN=[N+]=[N-])n3)CCN(CC(=O)O)CC2)n1` [TD764], the “conversion to 1,5-cz-[M(Lig)], Bi^III” value ([1]; 1 week at 80° C.) was 85%, the “conversion to 1,5-cz-[M(Lig)], Sc^III” value ([1]; 1 week at 80° C.) was 5% and the “conversion to 1,5-cz-[M(Lig)], Y^III” value ([1]; 1 week at 80° C.) was 95%. The “conversion to 1,5-cz-[M(Lig)], Bi^III” value ([1]; 1 hour at 80° C.) was 31%, the “conversion to 1,5-cz-[M(Lig)], Ca^II” value ([2]; 1 week at 80° C.) was 95% and the “conversion to 1,5-cz-[M(Lig)], Cd^II” value ([2]; 1 week at 80° C.) was 96%. The “conversion to 1,5-cz-[M(Lig)], Mn^II” value ([2]; 1 week at 80° C.) was 35%, the “conversion to 1,5-cz-[M(Lig)], Pb^II” value ([2]; 1 week at 80° C.) was 37% and the “conversion to 1,5-cz-[M(Lig)], Pd^II” value ([2]; 1 week at 80° C.) was 9%. The “conversion to 1,5-cz-[M(Lig)], Ca^II” value ([2]; 1 hour at 80° C.) was 16%, the “conversion to 1,5-cz-[M(Lig)], Mn^II” value ([2]; 1 hour at 80° C.) was 1% and the “conversion to 1,5-cz-[M(Lig)], Pb^II” value ([2]; 1 hour at 80° C.) was 1%. For the same compound, the “conversion to 1,5-cz-[M(Lig)], Pd^II” value ([2]; 1 hour at 80° C.) was 10%, the “conversion to 1,5-cz-[M(Lig)], Cd^II” value [2, 8] was 53% and the “conversion to 1,5-cz-[Ln(Lig)], Ce^III” value ([3]; after 1 week at 80° C.) was 20%. For the same compound, the “conversion to 1,5-cz-[Ln(Lig)], Dy^III” value ([3]; after 1 week at 80° C.) was 93%, the “conversion to 1,5-cz-[Ln(Lig)], Er^III” value ([3]; after 1 week at 80° C.) was 95% and the “conversion to 1,5-cz-[Ln(Lig)], Eu^III” value ([3]; after 1 week at 80° C.) was 79%. The “conversion to 1,5-cz-[Ln(Lig)], Gd^III” value ([3]; after 1 week at 80° C.) was 86%, the “conversion to 1,5-cz-[Ln(Lig)], Ho^III” value ([3]; after 1 week at 80° C.) was 94% and the “conversion to 1,5-cz-[Ln(Lig)], La^III” value ([3]; after 1 week at 80° C.) was 25%. The “conversion to 1,5-cz-[Ln(Lig)], Lu^III” value ([3]; after 1 week at 80° C.) was 96%, the “conversion to 1,5-cz-[Ln(Lig)], Nd^III” value ([3]; after 1 week at 80° C.) was 50% and the “conversion to 1,5-cz-[Ln(Lig)], Pr^III” value ([3]; after 1 week at 80° C.) was 35%. For the same compound, the “conversion to 1,5-cz-[Ln(Lig)], Sm^III” value ([3]; after 1 week at 80° C.) was 73%, the “conversion to 1,5-cz-[Ln(Lig)], Tb^III” value ([3]; after 1 week at 80° C.) was 91% and the “conversion to 1,5-cz-[Ln(Lig)], Tm^III” value ([3]; after 1 week at 80° C.) was 96%. The “conversion to 1,5-cz-[Ln(Lig)], Yb^III” value ([3]; after 1 week at 80° C.) was 96%.

In the case of `O=C1C[N@@]2CC[N@]3CC[N@@](CC[N@](CC2)Cc2cccc(n2)-c2cnnn2Cc2cc(-c4ccccc4)cc(n2)C3)CC(=O)[O][Nd][O]1` [TD868], the “fraction of intact chelate” value ([4]; 1 month) is reported as 0%, the “fraction of intact chelate” value ([4]; 1 week) is reported as 0% and the “fraction of intact chelate” value ([4]; 1 hour) is reported as 0%. The “fraction of intact chelate” value ([4]; 1 day) was 0%, the “fraction of intact chelate” value ([5]; 1 month) was 0% and the “fraction of intact chelate” value ([5]; 1 week) was 0%. The “fraction of intact chelate” value ([5]; 1 hour) was 0%, the “fraction of intact chelate” value ([5]; 1 day) was 0% and the “fraction of intact chelate” value ([6]; 1 month) was 0%. The “fraction of intact chelate” value ([6]; 1 week) was 0%, the “fraction of intact chelate” value ([6]; 1 hour) was 76% and the “fraction of intact chelate” value ([6]; 1 day) was 0%. The “fraction of intact chelate” value ([7]; 1 month) was 2%, the “fraction of intact chelate” value ([7]; 1 week) was 54% and the “fraction of intact chelate” value ([7]; 1 hour) was 99%. For the same compound, the “fraction of intact chelate” value ([7]; 1 day) was 90%.

With `O=C1C[N@@]2CC[N@]3CC[N@@](CC[N@](CC2)Cc2cccc(n2)-c2cnnn2Cc2cc(-c4ccccc4)cc(n2)C3)CC(=O)[O][Lu][O]1` [TD522] the “fraction of intact chelate” value ([4]; 1 month) was 98%, the “fraction of intact chelate” value ([4]; 1 week) was 99% and the “fraction of intact chelate” value ([4]; 1 hour) was 100%. For the same compound, the “fraction of intact chelate” value ([4]; 1 day) was 100%, the “fraction of intact chelate” value ([5]; 1 month) was 100% and the “fraction of intact chelate” value ([5]; 1 week) was 100%. The “fraction of intact chelate” value ([5]; 1 hour) was 100%, the “fraction of intact chelate” value ([5]; 1 day) was 100% and the “fraction of intact chelate” value ([6]; 1 month) was 100%. The “fraction of intact chelate” value ([6]; 1 week) was 100%, the “fraction of intact chelate” value ([6]; 1 hour) was 100% and the “fraction of intact chelate” value ([6]; 1 day) was 100%. For the same compound, the “fraction of intact chelate” value ([7]; 1 month) was 100%, the “fraction of intact chelate” value ([7]; 1 week) was 100% and the “fraction of intact chelate” value ([7]; 1 hour) was 100%. The “fraction of intact chelate” value ([7]; 1 day) was 100%.

With `O=C1C[N@@]2CC[N@]3CC[N@@](CC[N@](CC2)Cc2cccc(n2)-c2cnnn2Cc2cc(-c4ccccc4)cc(n2)C3)CC(=O)[O][Tb][O]1` [TD600] the “fraction of intact chelate” value ([4]; 1 month) was 0%, the “fraction of intact chelate” value ([4]; 1 week) was 0% and the “fraction of intact chelate” value ([4]; 1 hour) was 72%. The “fraction of intact chelate” value ([4]; 1 day) was 0%, the “fraction of intact chelate” value ([5]; 1 month) was 23% and the “fraction of intact chelate” value ([5]; 1 week) was 78%. For the same compound, the “fraction of intact chelate” value ([5]; 1 hour) was 99%, the “fraction of intact chelate” value ([5]; 1 day) was 96% and the “fraction of intact chelate” value ([6]; 1 month) was 99%. The “fraction of intact chelate” value ([6]; 1 week) was 99%, the “fraction of intact chelate” value ([6]; 1 hour) was 100% and the “fraction of intact chelate” value ([6]; 1 day) was 100%. The “fraction of intact chelate” value ([7]; 1 month) was 100%, the “fraction of intact chelate” value ([7]; 1 week) was 100% and the “fraction of intact chelate” value ([7]; 1 hour) was 100%. For the same compound, the “fraction of intact chelate” value ([7]; 1 day) was 100%.
